# According to PubChem BioAssay (NCI):
#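 Exposure lasted 48 hours, with cells grown in 96-well plates and compounds tested at five concentrations. At the GI50, growth is halved. TGI marks complete inhibition of growth.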
# Legend:
# Assay in all cases: NCI-60 cell line screen, 48 h
# [1] = tested on: 786-0 renal
# [2] = tested on: A498 renal
# [3] = tested on: A549 NSCLC
# [4] = tested on: ACHN renal
# [5] = tested on: BT-549 breast
# [6] = tested on: CAKI-1 renal
# [7] = tested on: CCRF-CEM leukemia
# [8] = tested on: COLO 205 colon
# [9] = tested on: DU-145 prostate
# [10] = tested on: EKVX NSCLC
# [11] = tested on: HCC-2998 colon
# [12] = tested on: HCT-116 colon
# [13] = tested on: HCT-15 colon
# [14] = tested on: HL-60(TB) leukemia
# [15] = tested on: HOP-62 NSCLC
# [16] = tested on: HOP-92 NSCLC
# [17] = tested on: HS 578T breast
# [18] = tested on: HT29 colon
# [19] = tested on: IGROV1 ovarian
# [20] = tested on: K-562 leukemia
# [21] = tested on: KM12 colon
# [22] = tested on: LOX IMVI melanoma
# [23] = tested on: M14 melanoma
# [24] = tested on: MALME-3M melanoma
# [25] = tested on: MCF7 breast
# [26] = tested on: MDA-MB-231 breast
# [27] = tested on: MDA-MB-435
# [28] = tested on: MOLT-4 leukemia
# [29] = tested on: NCI-H226 lung
# [30] = tested on: NCI-H23 lung
# [31] = tested on: NCI-H460 lung
# [32] = tested on: NCI-H522 lung
# [33] = tested on: NCI/ADR-RES ovarian
# [34] = tested on: OVCAR-4 ovarian
# [35] = tested on: OVCAR-5 ovarian
# [36] = tested on: OVCAR-8 ovarian
# [37] = tested on: PC-3 prostate
# [38] = tested on: RPMI-8226 leukemia
# [39] = tested on: RXF 393 renal
# [40] = tested on: SF-268 CNS
# [41] = tested on: SF-295 CNS
# [42] = tested on: SF-539 CNS
# [43] = tested on: SK-MEL-2 melanoma
# [44] = tested on: SK-MEL-28 melanoma
# [45] = tested on: SK-MEL-5 melanoma
# [46] = tested on: SK-OV-3 ovarian
# [47] = tested on: SN12C renal
# [48] = tested on: SNB-19 CNS
# [49] = tested on: SNB-75 CNS
# [50] = tested on: SR leukemia
# [51] = tested on: SW-620 colon
# [52] = tested on: T-47D breast
# [53] = tested on: TK-10 renal
# [54] = tested on: U251 CNS
# [55] = tested on: UACC-257 melanoma
# [56] = tested on: UACC-62 melanoma
# [57] = tested on: UO-31 renal
structure (smiles),measurement,setting,value
Fc1ccc(-c2cc3nc(C(Cl)Cl)nc(-c4ccco4)n3n2)cc1,GI50,[1],2.77 µM
same,TGI,[1],27.5 µM
same,GI50,[2],1.21 µM
same,TGI,[2],2.62 µM
same,GI50,[3],0.77 µM
same,TGI,[3],5.37 µM
same,GI50,[4],0.296 µM
same,TGI,[4],1.34 µM
same,GI50,[5],35.3 µM
same,TGI,[5],> 100 µM
same,GI50,[6],0.948 µM
same,TGI,[6],4.36 µM
same,GI50,[7],> 100 µM
same,TGI,[7],> 100 µM
same,GI50,[8],0.624 µM
same,TGI,[8],2.48 µM
same,GI50,[9],0.303 µM
same,TGI,[9],0.954 µM
same,GI50,[10],1.28 µM
same,TGI,[10],4.86 µM
same,GI50,[11],0.4 µM
same,TGI,[11],1.65 µM
same,GI50,[12],0.31 µM
same,TGI,[12],1.1 µM
same,GI50,[13],0.486 µM
same,TGI,[13],16.4 µM
same,GI50,[14],0.3 µM
same,GI50,[15],0.504 µM
same,TGI,[15],2.84 µM
same,GI50,[16],0.541 µM
same,TGI,[16],3.37 µM
same,GI50,[17],1.45 µM
same,TGI,[17],4.91 µM
same,GI50,[18],0.312 µM
same,TGI,[18],1.71 µM
same,GI50,[19],11.6 µM
same,TGI,[19],> 100 µM
same,GI50,[20],1.79 µM
same,TGI,[20],> 100 µM
same,GI50,[21],0.877 µM
same,TGI,[21],3.66 µM
same,GI50,[22],> 100 µM
same,TGI,[22],> 100 µM
same,GI50,[23],> 100 µM
same,TGI,[23],> 100 µM
same,GI50,[24],> 100 µM
same,TGI,[24],> 100 µM
same,GI50,[25],0.273 µM
same,TGI,[25],3.24 µM
same,GI50,[26],0.368 µM
same,TGI,[26],2.33 µM
same,GI50,[27],1.54 µM
same,TGI,[27],6.82 µM
same,GI50,[28],> 47.4 µM
same,TGI,[28],> 100 µM
same,GI50,[29],> 89.5 µM
same,TGI,[29],> 100 µM
same,GI50,[30],2.44 µM
same,TGI,[30],> 58 µM
same,GI50,[31],0.217 µM
same,TGI,[31],0.533 µM
same,GI50,[32],> 87.9 µM
same,TGI,[32],> 100 µM
same,GI50,[33],0.562 µM
same,TGI,[33],6.04 µM
same,GI50,[34],2.62 µM
same,TGI,[34],17.5 µM
same,GI50,[35],1.32 µM
same,TGI,[35],6.7 µM
same,GI50,[36],0.809 µM
same,TGI,[36],> 100 µM
same,GI50,[37],0.727 µM
same,TGI,[37],3.88 µM
same,GI50,[38],0.481 µM
same,TGI,[38],4.03 µM
same,GI50,[39],0.413 µM
same,TGI,[39],2.51 µM
same,GI50,[40],1.24 µM
same,TGI,[40],8.16 µM
same,GI50,[41],0.663 µM
same,TGI,[41],4.08 µM
same,GI50,[42],0.832 µM
same,TGI,[42],3.71 µM
same,GI50,[43],5.36 µM
same,TGI,[43],20.4 µM
same,GI50,[44],2.46 µM
same,TGI,[44],6.46 µM
same,GI50,[45],> 100 µM
same,TGI,[45],> 100 µM
same,GI50,[46],2.88 µM
same,TGI,[46],> 49.4 µM
same,GI50,[47],> 100 µM
same,TGI,[47],> 100 µM
same,GI50,[48],0.541 µM
same,TGI,[48],5.81 µM
same,GI50,[49],0.638 µM
same,TGI,[49],3.99 µM
same,GI50,[50],17.8 µM
same,TGI,[50],> 100 µM
same,GI50,[51],0.402 µM
same,TGI,[51],3.55 µM
same,GI50,[52],1.01 µM
same,TGI,[52],6.71 µM
same,GI50,[53],3.54 µM
same,TGI,[53],7.5 µM
same,GI50,[54],0.309 µM
same,TGI,[54],2.7 µM
same,GI50,[55],3.53 µM
same,TGI,[55],19.6 µM
same,GI50,[56],3.61 µM
same,TGI,[56],> 53.8 µM
same,GI50,[57],1.32 µM
same,TGI,[57],5.78 µM
